From patent publication US9249115B2, “N,N1 substituted piperazines having combined antiaggregant, anticoagulant and vasodilatory activity, and method for producing same” (Vertex Closed Joint Stock Company, priority 2011, dated 2016)

Assays:
[1] = test system: Thrombocyte aggregation induced by arachidonic acid; assay: Thrombocyte aggregation induced by arachidonic acid; format: cell-based, human; details: arachidonic acid 0.2 mmol
Procedure: (§1) The study of antiaggregant and anticoagulant properties of N,N′-substituted piperazines on the sample of donor human blood. The blood was collected by donor ulnar vein punction with dry sharp needle without syringe. The administration of drugs that influence on thrombocyte function was cancelled in 7÷10 days before the experiment.
(§2) In graduated plastic centrifuge tube 1 ml of 3.8% basic trisodium citrate solution with pH=7.4 was placed. The ulnar vein was punctuated, the freely effluent blood was collected up to 10 ml mark, the mixture was instantly stirred to prevent air bubbles appearance. The collected and stabilized blood was split in two 5 ml portions in two tubes.
(§3) To obtain thrombocyte enriched plasm the stabilized blood was spinned at 1000 rpm (150 g) for 8 min at room temperature. The repeated spinning of the blood at 3200 rpm (2300 g) for 20 min at 22° C. yielded thrombocyte depleted plasm.
The study of antiaggregant properties of N,N′-substituted piperazines with arachidonic acid (CHRONO-LOG, USA) as an inductor: to 450 l of thrombocyte plasm 50 l of N,N′-substituted piperazine solution was added, the mixture was incubated in the cuvette of CHRONO-LOG aggregometer for 15 min at 36° C. The concentration of arachidonic acid in the sample was 0.2 mmol, the concentrations of N,N′-substituted piperazines and comparison substance (aspirin) were 4÷5 mmol/L.
It was shown that N,N′-substituted piperazines have pronounced aspirin-like activity by inhibiting thrombocyte aggregation induced by arachidonic acid (table 5).

[2] = test system: ADP-induced thrombocyte aggregation; assay: ADP-induced thrombocyte aggregation, donor human thrombocyte enriched plasm; format: cell-based; details: ADP inductor; for MA, %: human thrombocyte plasm
Procedure: as §1, §2, §3
(§4) The study of anticoagulant activity was done within 2 h after thrombocyte enriched plasm obtaining. The plasm was normalized to achieve thrombocyte concentration of 200-250×10^9/L by addition of thrombocyte-free plasm. The concentration of thrombocytes was measured on SOLAR AR 2110 analyzer.
(§5) Antiaggregant properties of N,N′-substituted piperazines were evaluated by their influence on thrombocyte aggregation in tests with ADP-, collagen- and ristocetin-induced aggregation. To dissolve N,N′-substituted piperazines and to dilute reagents Tris-HCl-buffer with pH=7.4 was used.
(§6) As the general characteristic of thrombocyte aggregation activity the maximum amplitude (MA) of aggregation was taken on. That is the peak value of transmittance coefficient of the sample after aggregation agent introduction expressed in % relative to the transmittance of thrombocyte-free plasm. The response was registered on ascending linear segment of aggregation curve for 16 s.
(§7) The measurements were done using 4-channel CHRONO-LOG 490-4D analyzer (CHRONO-LOG, USA). The temperature in the cell was 37° C., the spinning speed of magnetic stirrer was 1200 rpm.
(§8) In a cuvette 0.5 ml of N,N′-substituted piperazine solution was placed, then 0.4 ml of normalized thrombocyte plasm was added. The mixture was stirred and incubated at 37° C. for 5 min. The cuvette was placed in aggregometer, then 0.05 ml of aggregation inductor solution was added (ADP or collagen or ristocetin). Thrombocyte aggregation was measured for 3 min.
ADP-induced reversible thrombocyte aggregation test utilized CHRONO-PAR ADP reagent (CHRONO-LOG, USA) with 10 mol concentration. Primary (reversible) thrombocyte aggregation was evaluated by the response on addition of ADP threshold dose (ADP concentration is 1 mol) to plasm.

[3] = test system: Collagen-induced thrombocyte aggregation; assay: Collagen-induced thrombocyte aggregation, donor human thrombocyte enriched plasm; format: cell-based; details: collagen inductor; for MA, %: human thrombocyte plasm; for inhibition at 500 µM / inhibition at 1250 µM / inhibition at 2500 µM / inhibition at 5000 µM: Homo sapiens, read-out: (MA0-MAx): MA0 * 100%
Procedure: as §1, §2, §3, §4, §5, §6, §7, §8
In collagen-induced thrombocyte aggregation test CHRONO-PAR COLLAGEN reagent (CHRONO-LOG, USA) was diluted with buffer solution until collagen concentration reached 10 µg/ml.

[4] = test system: Ristocetin-induced thrombocyte aggregation; assay: Ristocetin-induced thrombocyte aggregation, donor human thrombocyte enriched plasm; format: cell-based; details: ristocetin inductor; for MA (60 c), %: amplitude at 60 s
Procedure: as §1, §2, §3, §4, §5, §6, §7, §8
To study ristocetin-induced thrombocyte aggregation CHRONO-PAR RISTOCETIN reagent (CHRONO-LOG, USA) was diluted with buffer solution until ristocetin concentration reached 12 mg/ml. Thrombocyte aggregation amplitude was measured in 60 s after the beginning of the reaction.

[5] = test system: thrombocyte depleted plasm coagulation; assay: Activated partial thromboplastin time (APTT), anticoagulant properties; format: biochemical, human
Procedure: as §1, §2, §3
To study anticoagulant properties of N,N′-substituted piperazines activated partial thromboplastin time (APTT) was measured. That is the ability of N,N′-substituted piperazines to increase thrombocyte depleted plasm coagulation time compared to the ability of control sample. The set of reagents for APTT determination (Russian Scientific Research Institute of Hematology and Transfusiology Ministry of Health of Russian Federation by Technical Regulation 9398-214-01966456-99) and COAG-A-MATE® XM coagulometer (ORGANON TEKNIKA, USA) were used.
The solutions of N,N′-substituted piperazines were mixed with thrombocyte depleted plasm at 1:1 ratio, then 0.1 ml of APTT reagent was added, the mixture was incubated in the cuvette for 5 min at 37° C., then 0.1 ml of 0.277% CaCl2 solution was added. The time of coagulation (in seconds) was measured.

[6] = Homo sapiens, 0.2 mmol/L, read-out: (MA0-MAx): MA0 * 100%
[7] = Homo sapiens, 0.5 mmol/L, read-out: (MA0-MAx): MA0 * 100%
[8] = Homo sapiens, 1.25 mmol/L, read-out: (MA0-MAx): MA0 * 100%
[9] = Homo sapiens, 2.50 mmol/L, read-out: (MA0-MAx): MA0 * 100%
[10] = 1.7 mmol/L, thrombocyte depleted plasm
[11] = 2.5 mmol/L, thrombocyte depleted plasm
[12] = 4.1 mmol/L, thrombocyte depleted plasm
[13] = 8.3 mmol/L, thrombocyte depleted plasm

CC(=O)Oc1ccccc1C(=O)O [Acetylsalicylic acid, reference compound]
MA ([1]; 5 mmol/L): 3
Max. rate for 16 sec ([1]; 5 mmol/L): 5
inhibition at 5000 µM ([1]; Homo sapiens, 5 mmol/L): 100%

COc1cc(C(=O)N2CCN(C(=N)N)CC2)cc(OC)c1OC.O=C(O)/C=C/C(=O)O [Example 1, 4-(3,4,5-trimethoxybenzoyl)piperazine-1-carboximidamide fumarate hemihydrate]
MA, % ([2]; 0.2 mmol/L): 6.4 ± 1.1%
MA, % ([2]; 0.5 mmol/L): 5.0 ± 1.1%
MA, % ([2]; 1.25 mmol/L): 4.1 ± 0.7%
MA, % ([2]; 2.50 mmol/L): 3.0 ± 12.1%
MA, % ([2]; 5.0 mmol/L): 1.3 ± 0.5%
inhibition at 200 µM [2, 6]: 53.3%
inhibition at 500 µM [2, 7]: 63.5%
inhibition at 1250 µM [2, 8]: 70.1%
inhibition at 2500 µM [2, 9]: 78.1%
inhibition at 5000 µM ([2]; Homo sapiens, 5.0 mmol/L, read-out: (MA0-MAx): MA0 * 100%): 90.5%
MA, % ([3]; 0.5 mmol/L): 70.0 ± 5.1%
MA, % ([3]; 1.25 mmol/L): 60.7 ± 7.7%
MA, % ([3]; 2.5 mmol/L): 18.4 ± 3.1%
MA, % ([3]; 5.0 mmol/L): 2.1 ± 0.4%
inhibition at 500 µM ([3]; 0.5 mmol/L): 5.4%
inhibition at 1250 µM ([3]; 1.25 mmol/L): 18.8%
inhibition at 2500 µM ([3]; 2.5 mmol/L): 75.1%
inhibition at 5000 µM ([3]; 5.0 mmol/L): 97.2%
(MAx-MA0): MA0 * 100% ([4]; 0.5 mmol/L): 1.8%
MA (60 c), % ([4]; 0.5 mmol/L): 70.0 ± 10.5%
(MAx-MA0): MA0 * 100% (Ozagrel: (MA0-MAx): MA0 * 100%) ([4]; 1.25 mmol/L): 12.9%
MA (60 c), % ([4]; 1.25 mmol/L): 62.1 ± 7.7%
(MAx-MA0): MA0 * 100% (Ozagrel: (MA0-MAx): MA0 * 100%) ([4]; 2.5 mmol/L): 22.7%
MA (60 c), % ([4]; 2.5 mmol/L): 55.1 ± 11.1%
(MAx-MA0): MA0 * 100% (Ozagrel: (MA0-MAx): MA0 * 100%) ([4]; 5.0 mmol/L): 53.3%
MA (60 c), % ([4]; 5.0 mmol/L): 33.3 ± 4.5%
(APTTx-APTT0): APTT0 * 100% ([5]; 1.7 mmol/L): 12.2%
APTT [5, 10]: 50.4 ± 7.0 s
(APTTx-APTT0): APTT0 * 100% ([5]; 2.5 mmol/L): 40.1%
APTT [5, 11]: 63.3 ± 5.7 s
(APTTx-APTT0): APTT0 * 100% ([5]; 4.1 mmol/L): 56.8%
APTT [5, 12]: 70.4 ± 5.2 s
(APTTx-APTT0): APTT0 * 100% ([5]; 8.3 mmol/L): 209.8%
APTT [5, 13]: 139.1 ± 9.5 s
MA ([1]; 4.5 mmol/L): 33
Max. rate for 16 sec ([1]; 4.5 mmol/L): 20
inhibition at 4500 µM ([1]; Homo sapiens, 4.5 mmol/L): 60%

CCOc1ccc(CN2CCN(C(=N)N)CC2)c(OCC)c1OCC.Cl [Example 5, 4-(2,3,4-triethoxybenzyl)piperazine-1-carboximidamide hydrochloride]
MA, % ([2]; 0.2 mmol/L): 14.9 ± 2.0%
MA, % ([2]; 0.5 mmol/L): 11.5 ± 1.3%
MA, % ([2]; 1.25 mmol/L): 5.3 ± 2.2%
MA, % ([2]; 2.50 mmol/L): 1.9 ± 0.4%
inhibition at 200 µM [2, 6]: 2.7%
inhibition at 500 µM [2, 7]: 24.8%
inhibition at 1250 µM [2, 8]: 65.4%
inhibition at 2500 µM [2, 9]: 87.8%
MA, % ([3]; 0.5 mmol/L): 74.5 ± 4.3%
MA, % ([3]; 1.25 mmol/L): 63.7 ± 2.2%
MA, % ([3]; 2.5 mmol/L): 23.9 ± 0.3%
inhibition at 500 µM ([3]; 0.5 mmol/L): 5.3%
inhibition at 1250 µM ([3]; 1.25 mmol/L): 19.1%
inhibition at 2500 µM ([3]; 2.5 mmol/L): 69.8%
(APTTx-APTT0): APTT0 * 100% ([5]; 1.7 mmol/L): −4.9%
APTT [5, 10]: 53.7 ± 7.0 s
(APTTx-APTT0): APTT0 * 100% ([5]; 2.5 mmol/L): 22.7%
APTT, sec [5, 11]: 69.2 ± 5.9- sec
(APTTx-APTT0): APTT0 * 100% ([5]; 4.1 mmol/L): 35.6%
APTT [5, 12]: 76.5 ± 9.8 s
(APTTx-APTT0): APTT0 * 100% ([5]; 6.3 mmol/L): 75.4%
APTT ([5]; 6.3 mmol/L, thrombocyte depleted plasm): 98.9 ± 9.9 s
APTT [5, 13]: >150 s
MA ([1]; 4.0 mmol/L): 2
Max. rate for 16 sec ([1]; 4.0 mmol/L): 1
inhibition at 4000 µM ([1]; Homo sapiens, 4.0 mmol/L): 100%

COc1ccc(CN2CCN(C(=N)N)CC2)c(OC)c1OC [Example 7, 4-(2,3,4-trimethoxybenzyl)piperazine-1-carboximidamide monohydrate]
MA ([1]; 4.5 mmol/L): 72
Max. rate for 16 sec ([1]; 4.5 mmol/L): 49
inhibition at 4500 µM ([1]; Homo sapiens, 4.5 mmol/L): 35%

Cl.N=C(N)N1CCN(S(=O)(=O)c2cc(Cl)c(Cl)cc2Cl)CC1 [Example 13, 4-(2,4,5-trichlorophenylsulfonyl)piperazine-1-carboximidamide hydrochloride]
MA, % ([2]; 0.2 mmol/L): 14.0 ± 3.9%
MA, % ([2]; 0.5 mmol/L): 10.3 ± 1.3%
MA, % ([2]; 1.25 mmol/L): 4.7 ± 2.1%
MA, % ([2]; 2.50 mmol/L): 1.4 ± 0.2%
inhibition at 200 µM [2, 6]: 10.8%
inhibition at 500 µM [2, 7]: 34.4%
inhibition at 1250 µM [2, 8]: 70.1%
inhibition at 2500 µM [2, 9]: 91.1%
MA, % ([3]; 0.5 mmol/L): 72.1 ± 6.3%
MA, % ([3]; 1.25 mmol/L): 62.0 ± 9.8%
MA, % ([3]; 2.5 mmol/L): 55.0 ± 9.2%
MA, % ([3]; 5.0 mmol/L): 48.7 ± 7.1%
inhibition at 500 µM ([3]; 0.5 mmol/L): 7.2%
inhibition at 1250 µM ([3]; 1.25 mmol/L): 20.2%
inhibition at 2500 µM ([3]; 2.5 mmol/L): 29.2%
inhibition at 5000 µM ([3]; 5.0 mmol/L): 37.3%
(MAx-MA0): MA0 * 100% ([4]; 0.2 mmol/L): 1.8%
MA (60 c), % ([4]; 0.2 mmol/L): 60.1 ± 8.1%
(MAx-MA0): MA0 * 100% ([4]; 0.5 mmol/L): 22.5%
MA (60 c), % ([4]; 0.5 mmol/L): 48.2 ± 7.5%
(MAx-MA0): MA0 * 100% (Ozagrel: (MA0-MAx): MA0 * 100%) ([4]; 1.25 mmol/L): 30.9%
MA (60 c), % ([4]; 1.25 mmol/L): 43.0 ± 4.8%
(MAx-MA0): MA0 * 100% (Ozagrel: (MA0-MAx): MA0 * 100%) ([4]; 2.5 mmol/L): 43.4%
MA (60 c), % ([4]; 2.5 mmol/L): 35.2 ± 7.6%
(MAx-MA0): MA0 * 100% (Ozagrel: (MA0-MAx): MA0 * 100%) ([4]; 5.0 mmol/L): 48.4%
MA (60 c), % ([4]; 5.0 mmol/L): 32.1 ± 5.5%
MA ([1]; 4.0 mmol/L): 2
Max. rate for 16 sec ([1]; 4.0 mmol/L): 1
inhibition at 4000 µM ([1]; Homo sapiens, 4.0 mmol/L): 100%
